SMILES strings stand for the structures. Where only a bound is given, the exact number is not on record here.

The target of the test is T1, Adrenergic receptor alpha-2 (Homo sapiens, UniProt P08913+P18825+P18089).
T1 sequence (P08913 whole entry): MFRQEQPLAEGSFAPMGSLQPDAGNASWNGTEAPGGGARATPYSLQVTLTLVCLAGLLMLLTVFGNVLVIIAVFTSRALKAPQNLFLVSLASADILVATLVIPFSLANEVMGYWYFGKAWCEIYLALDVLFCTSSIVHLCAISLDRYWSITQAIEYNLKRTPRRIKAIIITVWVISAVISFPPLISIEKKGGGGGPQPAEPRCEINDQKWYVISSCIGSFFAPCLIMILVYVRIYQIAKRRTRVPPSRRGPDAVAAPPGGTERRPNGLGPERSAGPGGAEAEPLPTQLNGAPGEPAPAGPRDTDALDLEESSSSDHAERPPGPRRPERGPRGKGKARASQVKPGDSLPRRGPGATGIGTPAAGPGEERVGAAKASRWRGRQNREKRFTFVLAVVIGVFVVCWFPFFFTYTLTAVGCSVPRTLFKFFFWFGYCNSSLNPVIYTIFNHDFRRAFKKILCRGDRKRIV
T1 sequence (P18825 whole entry): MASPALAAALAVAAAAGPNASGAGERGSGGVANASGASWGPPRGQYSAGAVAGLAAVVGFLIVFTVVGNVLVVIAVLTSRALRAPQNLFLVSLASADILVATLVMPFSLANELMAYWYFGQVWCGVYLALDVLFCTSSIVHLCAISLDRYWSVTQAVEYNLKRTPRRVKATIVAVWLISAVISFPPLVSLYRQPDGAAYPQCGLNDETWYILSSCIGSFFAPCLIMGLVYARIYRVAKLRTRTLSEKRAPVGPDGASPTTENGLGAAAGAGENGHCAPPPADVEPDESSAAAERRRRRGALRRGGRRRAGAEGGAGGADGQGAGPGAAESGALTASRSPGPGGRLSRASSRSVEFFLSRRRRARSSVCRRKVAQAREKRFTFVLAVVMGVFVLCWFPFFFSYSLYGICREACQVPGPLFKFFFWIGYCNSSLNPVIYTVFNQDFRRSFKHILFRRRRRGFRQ
T1 sequence (P18089 whole entry): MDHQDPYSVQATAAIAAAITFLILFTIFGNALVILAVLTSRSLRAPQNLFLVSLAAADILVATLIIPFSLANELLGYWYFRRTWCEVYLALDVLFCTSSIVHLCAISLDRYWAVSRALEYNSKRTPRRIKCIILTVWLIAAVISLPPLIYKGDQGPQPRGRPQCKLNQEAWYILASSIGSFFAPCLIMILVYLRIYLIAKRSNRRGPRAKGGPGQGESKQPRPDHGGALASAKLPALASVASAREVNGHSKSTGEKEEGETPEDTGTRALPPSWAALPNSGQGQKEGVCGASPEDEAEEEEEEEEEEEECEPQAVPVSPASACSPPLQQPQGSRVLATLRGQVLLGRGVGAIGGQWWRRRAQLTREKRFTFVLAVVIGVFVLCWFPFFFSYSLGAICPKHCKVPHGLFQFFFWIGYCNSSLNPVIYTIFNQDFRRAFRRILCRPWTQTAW
Put plainly: Displacement of [3H]clonidine from Adrenergic alpha-2 receptor. In kind it is protein assay. (Loss of bound radioactivity is the signal in a displacement assay; it reports binding, not function.)

As to `CCC1Cc2ccc([N+](=O)[O-])cc2CN1` (racemic), the Ki (in general, a dissociation constant, usually derived from enzyme kinetics or from competition with a known ligand) was 28 µM.

In turn, `CC(C)C1Cc2ccc([N+](=O)[O-])cc2CN1` (racemic) yielded a Ki of 36 µM.

Turning to `FC(F)(F)c1ccc2c(c1)CNC(C(F)(F)F)C2` (racemic), the Ki is greater than 1000 µM.

`NS(=O)(=O)c1ccc2c(c1)CNC(C(F)(F)F)C2` (racemic) yielded a Ki greater than 1000 µM.

Molecule `CS(=O)(=O)c1ccc2c(c1)CNC(C(F)(F)F)C2` (racemic) displayed a Ki of 3900 µM.

For `CCNS(=O)(=O)c1ccc2c(c1)CNC(C(F)(F)F)C2` (racemic), the Ki was greater than 1000 µM.

`O=[N+]([O-])c1ccc2c(c1)CNC(C(F)(F)F)C2` (racemic) yielded a Ki of 1400 µM.

The molecule `NS(=O)(=O)c1ccc2c(c1)CNC(CO)C2` (centres undefined) showed a Ki of 1400 µM.

With `N#Cc1ccc2c(c1)CNC(C(F)(F)F)C2` (racemic), the Ki is 2900 µM.

Consider `CCC1Cc2ccc(Br)cc2CN1` (racemic), for which the Ki was found to be 1.2 µM.

In the case of `Clc1ccc2c(c1Cl)CNCC2`, the Ki is 0.021 µM.

For `Ic1ccc2c(c1)CNCC2`, the Ki was 0.22 µM.

On to `FC(F)(F)C1Cc2ccc(Br)cc2CN1` (racemic), for which the Ki was greater than 1000 µM.

The molecule `CC(C)C1Cc2ccc(Br)cc2CN1` (centres undefined) returned a Ki of 3.9 µM.

The molecule `CC1Cc2ccc(Br)cc2CN1` (racemic) had a Ki of 1.1 µM.

With `FC(F)(F)C1Cc2ccc(I)cc2CN1` (racemic), the Ki was greater than 1000 µM.

For `NS(=O)(=O)c1ccc2c(c1)CNCC2`, the Ki (read-out: Ki) amounted to 100 µM.

`FC(F)(F)C1Cc2ccccc2CN1` (centres undefined) gave an inhibition constant (Ki) of 400 µM.

On to `FC(F)(F)C1Cc2ccc(Cl)cc2CN1` (racemic), for which the Ki is greater than 1000 µM.
